For test [1], the target named is CDK7/cyclin H (Homo sapiens, UniProt P50613). The experiment in a line: CDK 7 and 9 assay (CTD peptide substrate). The test is classed as biochemical. To be noted: in-house kinase assays; read-out: Average IC50 CDK7H. As to the method:
(§1) Kinase activity was investigated by measuring the incorporation of radioactive phosphate from ATP into appropriate polypeptide substrates. Recombinant protein kinases and kinase complexes were produced or obtained commercially. Assays were performed using 96-well plates and appropriate assay buffers (typically 25 mM β-glycerophosphate, 20 mM MOPS, 5 mM EGTA, 1 mM DTT, 1 mM […], pH 7.4), into which were added 2-4 μg of active enzyme with appropriate substrates. The reactions were initiated by addition of Mg/ATP mix (15 mM MgCl2+100 μM ATP with 30-50 kBq per well of [γ-^32P]-ATP) and mixtures incubated as required at 30° C. Reactions were stopped on ice, followed by filtration through p81 filterplates or GF/C filterplates (Whatman Polyfiltronics, Kent, UK). After washing 3 times with 75 mM aq orthophosphoric acid, plates were dried, scintillant added and incorporated radioactivity measured in a scintillation counter (TopCount, Packard Instruments, Pangbourne, Berks, UK). Compounds for kinase assay were made up as 10 mM stocks in DMSO and diluted into 10% DMSO in assay buffer.
(§2) The reaction was stopped by placing the plate on ice for 2 min. Avidin (50 μg) was added to each well, and the plate was incubated at room temp for 30 min. The samples were transferred to a 96-well P81 filter plate, and washed (4×200 μL per well) with 75 mM phosphoric acid. Microscint 40 scintillation liquid (50 μL) was added to each well, and the amount of ^32P incorporation for each sample was measured using a Packard Topcount microplate scintillation counter.

Test [2] deals with CDK9/cyclin T1 (Homo sapiens, UniProt P50750). The experiment in a line: CDK 7 and 9 assay (CTD peptide substrate). The format is biochemical. To be noted: in-house kinase assays; read-out: Average IC50 CDK9T1. As to the method:
as §1, §2

Test [3] relates to stimulated PBMCs. Nature of the test: T cell proliferation assay (BrdU ELISA in stimulated PBMCs). The format is cell-based. As to the method:
PBMCs were seeded in 96 well plates at 1×10^5 cells/well, in 50 μL per well culture medium. […] All stimulants and compounds were made up to 4× final concentration in tissue culture medium and 25 μL of each drug and stimulant was then added to wells, for a final volume of 100 μL/well. For unstimulated controls, 25 μL tissue culture medium was added to wells instead of stimulant and for untreated cells, 25 μL/well tissue culture medium containing equal volume DMSO (0.1% final) was added. Three adjacent wells were treated for each stimulation/treatment condition and the mean value calculated for analysis.
In addition, PBMCs were stimulated with ConA (Concanavalin A, Sigma C5275) at concentrations ranging from 0.5 μg/mL to 100 μg/mL to identify its stimulatory effect and optimal concentration.
Cells were labelled with BrdU for two hours prior to harvesting. Plates were then centrifuged for 10 minutes at 300 g (RT), supernatant removed from wells by pipetting and cells dried for 1 hour at 60° C. FixDenat solution was added to plates (100 μL/well) and incubated for 30 minutes, then flicked to remove and anti-BrdU-POD solution added to plates (100 μL/well) and incubated for 90 minutes.

In test [4] the test system is tumour cell panels. Nature of the test: In-house 72 hour cytotoxicity assays on tumour cell panels. The test is classed as cell-based.
For test [5], the target named is T1, AurA (Homo sapiens, UniProt O14965).
T1 sequence (O14965 1-403): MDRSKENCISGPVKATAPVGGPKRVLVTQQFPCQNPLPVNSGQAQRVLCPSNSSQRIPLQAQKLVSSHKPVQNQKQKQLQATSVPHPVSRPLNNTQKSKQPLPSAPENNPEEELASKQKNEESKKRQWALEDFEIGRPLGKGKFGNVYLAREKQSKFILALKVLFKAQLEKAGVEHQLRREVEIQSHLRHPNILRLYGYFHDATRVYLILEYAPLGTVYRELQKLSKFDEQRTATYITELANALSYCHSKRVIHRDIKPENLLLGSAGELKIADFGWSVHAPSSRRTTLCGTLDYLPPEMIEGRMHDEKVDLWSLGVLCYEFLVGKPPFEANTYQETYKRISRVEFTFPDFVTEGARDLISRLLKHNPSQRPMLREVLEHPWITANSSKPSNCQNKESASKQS
The experiment in a line: In-house kinase assay (32P incorporation). The settings on record: in-house kinase assays. The format is biochemical. The method, then:
as §1

In test [6] the target is AurB (Homo sapiens, UniProt Q96GD4). The experiment in a line: In-house kinase assay (32P incorporation). The test is classed as biochemical. The settings on record: in-house kinase assays. The method, then: as §1
Test [7] has as its target CDK6D3 (Homo sapiens, UniProt Q00534). The experiment in a line: In-house kinase assay (32P incorporation). The format is biochemical. To be noted: in-house kinase assays. As to the method:
as §1

Test [8] deals with CDK1B (Homo sapiens, UniProt P06493). The experiment in a line: In-house kinase assay (32P incorporation). The test is classed as biochemical. The settings on record: in-house kinase assays. The method, then: as §1
Test [9] deals with CDK4D1 (Homo sapiens, UniProt P11802). The experiment in a line: In-house kinase assay (32P incorporation). To be noted: in-house kinase assays. The test is classed as biochemical. The method, then: as §1
Setting [10] is: rounded IC50 value used for ease of calculation in PBMC assays, read-out: IC50 Used.

The source of these data is US8809350B2, “Purine and pyrimidine CDK inhibitors and their use for the treatment of autoimmune diseases” (priority 2004, dated 2014).

“Also recorded” adds a separate entry of the source. Where two headings read alike, the source gives them in different places.

Chain of CDK1B (P06493 whole entry): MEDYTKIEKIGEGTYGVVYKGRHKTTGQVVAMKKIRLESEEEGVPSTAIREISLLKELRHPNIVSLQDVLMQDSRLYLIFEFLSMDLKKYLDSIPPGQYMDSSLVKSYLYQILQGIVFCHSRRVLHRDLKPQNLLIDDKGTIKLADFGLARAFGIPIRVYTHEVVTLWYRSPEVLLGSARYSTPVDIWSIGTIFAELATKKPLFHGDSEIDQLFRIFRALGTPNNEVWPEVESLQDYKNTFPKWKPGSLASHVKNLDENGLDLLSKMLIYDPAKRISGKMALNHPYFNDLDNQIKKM
Chain of CDK1B (P14635 whole entry partner): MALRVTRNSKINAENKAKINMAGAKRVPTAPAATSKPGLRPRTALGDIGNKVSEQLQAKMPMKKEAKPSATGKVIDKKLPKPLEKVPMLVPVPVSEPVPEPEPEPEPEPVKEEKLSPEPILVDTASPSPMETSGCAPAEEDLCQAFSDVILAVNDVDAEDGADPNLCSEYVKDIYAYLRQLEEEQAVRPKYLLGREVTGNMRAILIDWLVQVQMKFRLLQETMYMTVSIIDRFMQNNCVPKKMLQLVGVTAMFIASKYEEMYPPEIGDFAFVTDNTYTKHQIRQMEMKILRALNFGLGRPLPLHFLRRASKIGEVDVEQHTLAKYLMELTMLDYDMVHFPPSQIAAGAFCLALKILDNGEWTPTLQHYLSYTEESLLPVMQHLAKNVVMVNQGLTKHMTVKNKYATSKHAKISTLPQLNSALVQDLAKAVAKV
Chain of CDK6D3 (Q00534 whole entry): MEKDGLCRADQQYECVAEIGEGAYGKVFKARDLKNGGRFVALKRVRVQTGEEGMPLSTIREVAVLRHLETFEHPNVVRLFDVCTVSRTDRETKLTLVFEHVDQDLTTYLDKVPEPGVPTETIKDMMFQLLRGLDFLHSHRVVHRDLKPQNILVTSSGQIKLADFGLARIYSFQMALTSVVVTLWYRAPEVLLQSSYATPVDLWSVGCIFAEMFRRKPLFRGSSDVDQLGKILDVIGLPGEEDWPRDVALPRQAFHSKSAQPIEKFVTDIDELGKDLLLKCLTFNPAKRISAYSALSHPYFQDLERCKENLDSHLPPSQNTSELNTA
Chain of CDK6D3 (P30281 whole entry partner): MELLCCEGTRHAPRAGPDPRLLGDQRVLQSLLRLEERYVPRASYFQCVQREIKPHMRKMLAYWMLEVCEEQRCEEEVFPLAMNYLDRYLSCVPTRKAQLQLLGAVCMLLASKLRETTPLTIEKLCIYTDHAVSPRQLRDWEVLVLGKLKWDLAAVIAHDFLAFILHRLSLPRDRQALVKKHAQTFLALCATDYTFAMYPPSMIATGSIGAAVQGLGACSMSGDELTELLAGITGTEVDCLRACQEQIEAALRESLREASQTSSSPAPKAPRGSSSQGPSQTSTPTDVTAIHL
Chain of AurB (Q96GD4 whole entry): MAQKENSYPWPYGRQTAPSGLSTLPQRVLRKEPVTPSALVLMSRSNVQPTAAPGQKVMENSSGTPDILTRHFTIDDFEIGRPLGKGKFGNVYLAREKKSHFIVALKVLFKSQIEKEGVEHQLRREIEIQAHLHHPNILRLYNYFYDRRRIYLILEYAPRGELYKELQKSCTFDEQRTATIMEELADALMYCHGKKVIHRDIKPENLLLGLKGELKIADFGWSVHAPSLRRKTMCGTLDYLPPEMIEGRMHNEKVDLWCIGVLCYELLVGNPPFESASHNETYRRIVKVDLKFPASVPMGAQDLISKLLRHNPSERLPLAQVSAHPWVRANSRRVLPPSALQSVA
Chain of CDK7/cyclin H (P50613 whole entry): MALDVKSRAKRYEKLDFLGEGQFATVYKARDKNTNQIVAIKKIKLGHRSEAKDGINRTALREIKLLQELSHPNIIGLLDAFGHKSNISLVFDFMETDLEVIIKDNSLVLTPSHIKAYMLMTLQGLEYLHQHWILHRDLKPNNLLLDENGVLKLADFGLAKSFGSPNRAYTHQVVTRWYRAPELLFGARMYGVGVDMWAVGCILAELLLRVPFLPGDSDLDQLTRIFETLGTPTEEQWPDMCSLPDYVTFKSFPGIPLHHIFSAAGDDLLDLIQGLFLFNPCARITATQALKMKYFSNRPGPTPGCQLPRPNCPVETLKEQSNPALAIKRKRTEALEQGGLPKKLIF
Chain of CDK7/cyclin H (P51946 whole entry partner): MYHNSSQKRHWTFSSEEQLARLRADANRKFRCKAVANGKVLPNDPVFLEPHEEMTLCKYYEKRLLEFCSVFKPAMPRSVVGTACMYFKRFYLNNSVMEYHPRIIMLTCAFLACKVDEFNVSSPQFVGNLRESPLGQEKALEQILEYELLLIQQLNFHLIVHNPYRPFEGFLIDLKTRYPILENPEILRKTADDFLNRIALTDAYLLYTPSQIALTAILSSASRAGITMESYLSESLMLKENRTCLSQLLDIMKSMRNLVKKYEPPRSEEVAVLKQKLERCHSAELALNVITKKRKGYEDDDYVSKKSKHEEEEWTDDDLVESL
Chain of CDK9/cyclin T1 (P50750 whole entry): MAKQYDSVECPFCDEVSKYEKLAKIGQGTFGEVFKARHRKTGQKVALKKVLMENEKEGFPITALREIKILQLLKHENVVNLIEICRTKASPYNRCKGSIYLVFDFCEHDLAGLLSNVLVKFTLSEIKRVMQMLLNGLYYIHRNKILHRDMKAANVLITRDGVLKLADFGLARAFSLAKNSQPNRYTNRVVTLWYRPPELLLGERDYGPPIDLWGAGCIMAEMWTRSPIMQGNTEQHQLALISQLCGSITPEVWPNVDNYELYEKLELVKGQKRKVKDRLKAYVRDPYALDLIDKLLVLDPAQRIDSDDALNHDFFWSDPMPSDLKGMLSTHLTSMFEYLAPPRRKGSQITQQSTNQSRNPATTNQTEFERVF
Chain of CDK9/cyclin T1 (O60563 whole entry partner): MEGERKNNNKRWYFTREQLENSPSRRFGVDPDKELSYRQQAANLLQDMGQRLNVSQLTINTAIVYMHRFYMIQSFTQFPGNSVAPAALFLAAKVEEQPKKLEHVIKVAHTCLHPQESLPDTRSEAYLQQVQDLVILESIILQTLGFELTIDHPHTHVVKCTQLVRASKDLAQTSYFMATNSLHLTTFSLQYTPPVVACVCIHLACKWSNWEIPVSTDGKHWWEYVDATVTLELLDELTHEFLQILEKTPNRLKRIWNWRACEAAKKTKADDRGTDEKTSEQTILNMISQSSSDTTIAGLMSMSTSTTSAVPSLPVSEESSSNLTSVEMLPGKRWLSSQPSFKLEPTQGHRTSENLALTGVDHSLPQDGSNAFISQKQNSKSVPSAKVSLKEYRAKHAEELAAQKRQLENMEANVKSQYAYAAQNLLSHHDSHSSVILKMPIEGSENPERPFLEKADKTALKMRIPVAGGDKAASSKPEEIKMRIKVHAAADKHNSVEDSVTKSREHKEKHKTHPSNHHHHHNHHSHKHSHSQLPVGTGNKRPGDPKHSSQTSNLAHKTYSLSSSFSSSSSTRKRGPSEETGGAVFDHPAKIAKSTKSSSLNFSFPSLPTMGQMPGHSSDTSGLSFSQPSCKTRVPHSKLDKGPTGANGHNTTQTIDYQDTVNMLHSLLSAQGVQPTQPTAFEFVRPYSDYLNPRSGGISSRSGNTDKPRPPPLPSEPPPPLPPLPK
Chain of CDK4D1 (P11802 whole entry): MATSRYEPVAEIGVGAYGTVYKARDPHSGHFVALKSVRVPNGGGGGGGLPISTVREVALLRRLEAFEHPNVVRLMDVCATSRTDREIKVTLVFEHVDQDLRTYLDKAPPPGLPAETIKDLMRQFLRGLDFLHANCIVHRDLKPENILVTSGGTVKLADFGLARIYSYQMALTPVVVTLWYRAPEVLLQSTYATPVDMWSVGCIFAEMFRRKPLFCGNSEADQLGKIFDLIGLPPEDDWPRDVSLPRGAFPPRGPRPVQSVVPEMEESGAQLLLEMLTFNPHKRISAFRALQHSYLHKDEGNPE
Chain of CDK4D1 (P24385 whole entry partner): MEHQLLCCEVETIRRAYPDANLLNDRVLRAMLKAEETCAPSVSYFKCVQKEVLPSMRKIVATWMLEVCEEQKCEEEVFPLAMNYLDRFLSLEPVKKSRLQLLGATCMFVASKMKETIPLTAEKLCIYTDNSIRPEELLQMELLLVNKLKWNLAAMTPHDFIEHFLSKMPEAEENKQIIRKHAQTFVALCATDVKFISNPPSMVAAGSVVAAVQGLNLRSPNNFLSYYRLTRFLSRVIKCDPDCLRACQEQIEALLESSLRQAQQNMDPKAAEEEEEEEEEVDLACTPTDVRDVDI

By IC50 is commonly meant the concentration that inhibits the measured activity by half. For the compound `Cc1nc(C)c(-c2ccnc(Nc3ccc(N(C)C)cc3)n2)s1` [Compound 4], the IC50 in [1] was determined as 8570 nM; in test [2], 1880 nM; in [4] (PBMC, read-out: IC50 Used) it was 1000 nM; in test [5], 38 nM; in test [6] it was 30 nM; in [7] it was 1040 nM. The compound also returned an IC50 in test [8] of 7460 nM. Moreover, the BrdU incorporation entry in test [3] (Example 3, PMA/I stimulated PBMCs, all concentrations) is on record as “higher than in PHA stimulated cells”; in test [3] (Example 4, PHA or ConA stimulated PBMCs, 0.25×IC50 to 4×IC50, 48 and 72 hours), “BrdU signals do not reduce to background levels; also recorded: fails to achieve complete inhibition of proliferation activity”.

Turning to `CC[C@H](Nc1nc(NCc2cccnc2)c2ncn(C(C)C)c2n1)[C@@H](C)O` [Compound 8], the IC50 in [4] (72 h, read-out: IC50 Average) is 876 nM; in [4] (setting [10]), 1000 nM; in test [5], 652 nM; in [6], 399 nM; in [7], 168 nM; in [8], 1990 nM.

As for `Cc1nc(N)sc1-c1ccnc(Nc2ccc(N3CCOCC3)cc2)n1` [Compound 11], the IC50 is 266 nM in test [1]; 291 nM in test [4] (72 h, read-out: IC50 Average); 500 nM in test [4] (setting [10]).

Consider `CNc1nc(C)c(-c2ccnc(Nc3ccc(N4CCNCC4)cc3)n2)s1` [Compound 12], for which the IC50 in test [4] (72 h, read-out: IC50 Average) is 353 nM; in [4] (setting [10]) it was 500 nM; in test [9] it was 1020 nM; in test [8], 1030 nM.
